Data taken from patent US20200061062A1, “INHIBITORS OF HUMAN PHOSPHATIDYLINOSITOL 3-KINASE DELTA” (ICOS Corporation, priority 2000, published 2020).
Where two headings read alike, the source gives them in different places.

Legend:
Assay type in all cases: cell-based
[1] = tested on: K562; assay: Cancer cell proliferation, [3H]-thymidine incorporation, K562; conditions: K562 line; 0.001 μM to 20 μM
Method: (§1) The effect of compounds of the invention on cancer cell proliferation was evaluated by testing one of the compounds against a panel of Chronic Myeloid Leukemia (CML) cell lines, including KU812, RWLeu4, K562, and MEG-01.
(§2) The inhibitory activity of the compound (D-000, dissolved in DMSO) was determined as follows. The tested compound was added in a series of concentrations (0.001 μM to 20 μM) to 96-well microtiter plates with cells (1000 to 5000 cells/well). Plates were incubated for five days at 37° C. during which the control cultures without test compound were able to undergo at least two cell-division cycles. Cell growth was measured by incorporation of [^3H]-thymidine for eighteen hours added at days three, four, and five. Cells were transferred to a filter, washed and the radioactivity counted using a Matrix 96 beta counter (Packard). The percentage of cell growth was measured as follows: […]

[2] = tested on: human B cells; assay: Antibody production by human B cells (IgG and IgM ELISA); conditions: B-cell, IL-2 and PANSORBIN stimulation
Method: Heparinized blood (200 mL) from healthy volunteers was mixed with an equal volume of D-PBS, layered on 10×10 mL FICOLL-PAQUE® (Pharmacia), and centrifuged at 1600 rpm for 30 min at room temperature. Peripheral blood mononuclear cells (PBMC) were collected from the FICOLL®/serum interface, overlayed on 10 mL fetal bovine serum (FBS) and centrifuged at 800 rpm for 10 min to remove platelets. After washing, cells were incubated with DYNAL® Antibody Mix (B cell kit) (Dynal Corp., Lake Success, N.Y.) for 20 min at 4-8° C. Following the removal of unbound antibody, PBL were mixed with anti-mouse IgG coated magnetic beads (Dynal) for 20 min at 4-8° C. with gentle shaking followed by elimination of labeled non-B cells on the magnetic bead separator. This procedure was repeated once more. The B cells were resuspended in RPMI-1640 with 10% FBS, and kept on ice until further use.
To study antibody production, B cells were aliquoted at 50-75×10^3 cells/well into 96-well plate with or without inhibitor, to which IL-2 (100 U/mL) and PANSORBIN® (Calbiochem) Staphylococcus aureus cells (1:90,000) were added. […] Samples from each condition (in triplicate) were removed, and analyzed for IgG and IgM, as measured by ELISA. […] Color development was stopped by H2SO4 solution, and plates were read on an ELISA plate reader.

[3] = tested on: MEG-01; assay: Cancer cell proliferation, [3H]-thymidine incorporation, MEG-01; conditions: MEG-01 line; 0.001 μM to 20 μM
Method: as §1, §2

[4] = tested on: human neutrophils; assay: Bactericidal capacity of neutrophils (Staphylococcus aureus killing); conditions: FIG. 6; versus DMSO control
Excerpt: Given that the PI3Kδ inhibitor D-000 affects certain neutrophil functions detailed above, it was of interest to see whether the compound affects neutrophil-mediated bacterial killing. The effect of D-000 on neutrophil-mediated Staphylococcus aureus killing was studied according to the method described by Clark and Nauseef (pp. 7.23.4-7.23.6 in Vol. 2, Supp. 6, Curr Protocols Immunol (Eds., Colligan et al.) (1994)). Purified human neutrophils (5×10^6 cells/mL) (treated with either DMSO or a serial dilution of D-000 in DMSO) were mixed with autologous serum. Overnight-grown S. aureus cells were washed, resuspended in HBSS, and added to the serum-opsonized neutrophils at a 10:1 ratio. Neutrophils were allowed to internalize the bacteria by phagocytosis by incubation at 37° C. for 20 min. The noninternalized bacteria were killed by 10 units/mL lysostaphin at 37° C. for 5 min and the total mixture was rotated at 37° C. Samples were withdrawn at various times for up to 90 min and the neutrophils were lysed by dilution in water. Viable bacteria were counted by plating appropriate dilutions on trypticase-soy-agar plate and counting the S. aureus colonies after overnight growth.

[5] = tested on: RWLeu4; assay: Cancer cell proliferation, [3H]-thymidine incorporation, RWLeu4; conditions: Homo sapiens, 120 h; RWLeu4 line; five days; read-out: EC50, inhibition of cell growth
Method: as §1, §2

With `O=c1c2ccccc2nc(CSc2ncnc3[nH]cnc23)n1-c1ccccc1Cl` [Compound D-000, 3-(2-chlorophenyl)-2-(9H-purin-6-ylsulfanylmethyl)-3H-quinazolin-4-one] the “Effect on cell growth” value [1] was “not found to exhibit an effect”, the IC50 ([2]; FIG. 7, read-out: Half-maximal inhibition of IgG production) was roughly 7000 nM and the IC50 ([2]; FIG. 7, read-out: Half-maximal inhibition of IgM production) was roughly 1000 nM. The “Effect on cell growth” value [3] was “not found to exhibit an effect”, the “Effect on neutrophil-mediated killing of S. aureus” value [4] was “does not significantly affect” and the EC50 [5] was roughly 2000 nM.
